Test results: patent US20240268385A1, “PEST CONTROL COMPOSITION” (DAIKIN INDUSTRIES, LTD., priority 2021, published 2024)
Like-named read-outs stand apart in the source and are kept apart here.

Legend:
[1] = test system: phytophthora disease pathogens; conditions: in vivo
[2] = test system: Frankliniella occidentalis (First-instar Larva); test: whole plant or invertebrate; conditions: in Brassica oleracea, 120 h
Protocol: (§1) 9 parts by mass of a subagent of a formulation (xylene:DMF:Solpol 3005X (Toho Chemical Industry Co., Ltd.)=4:4:1) was mixed with 1 part by mass of dexmedetomidine (Wako) to prepare a 10% emulsion. A diluted solution of the 10% emulsion with a predetermined concentration was prepared by using a spreading agent, Grameen S (Toyo Green Co., Ltd.), diluted 10000-fold with water. Sample crops were individually sprayed with a sufficient amount of the diluted chemical solution by using a spray gun.
(§2) Test Method for Bemisia tabaci (Adult) and Frankliniella Occidentalis (First-Instar Larva)
(§3) After the sample crops were sprayed with the chemical solution, they were air-dried, and then the leaves were cut and stored in cups. While test insects were released, the number of insects released was counted, and the cups were covered with a lid. The mortality rate was calculated from the number of surviving insects after 2 days for Bemisia tabaci and after 5 days for Frankliniella occidentalis. Their corrected mortality rate was calculated from the following formula:
(§4) Corrected mortality rate (%)=[(survival rate of untreated group−survival rate of treated group)/survival rate of untreated group]×100

[3] = test system: Bemisia tabaci (Adult Insect); test: whole plant or invertebrate; conditions: in Brassica oleracea, 48 h
Protocol: as §1, §2, §3, §4

[4] = test system: Nephotettix cincticeps (Three-instar Larva); test: whole plant or invertebrate; conditions: in Oryza sativa, 144 h
Protocol: as §1
(§5) Test Method for Nilaparvata lugens (Third-Instar Larva) and Nephotettix cincticeps (Third-Instar Larvae)
(§6) After the sample crops were sprayed with the chemical solution, they were air-dried, and 10 test insects were released. To prevent the escape of the test insects, plants were covered with cups and nylon gauze. The mortality rate was calculated from the number of surviving insects after 6 days, and the corrected mortality rate was calculated from the following formula:
as §4

[5] = test system: Nilaparvata lugens (Three-instar Larva); test: whole plant or invertebrate; conditions: in Oryza sativa, 144 h
Protocol: as §1, §5, §6, §4

[6] = test system: brown blotch disease pathogens; conditions: 500 ppm spray, cucumbers at 2-leaf stage, 8 days in humid room
Protocol: as §1
(§7) Preventive value=100−(damage in treated group/damage in untreated group)×100 (N)
Test Method for Brown Blotch Disease Pathogen
Cucumbers at the 2-leaf stage were sprayed with the chemical solution and inoculated with a spray of a spore suspension of brown blotch disease pathogens, and then placed in a humid room for 8 days. The area of lesions on leaves was measured, and the preventive value was calculated according to formula (N).

blast disease pathogens = conditions: 500 ppm spray, rice seedlings at 2.5-leaf stage, 8 days in humid room
Protocol: as §1
Test Method for Blast Disease Pathogen
Seedlings at the 2.5-leaf stage were sprayed with the chemical solution, and placed in a humid room for 8 days with blast disease pathogens, followed by measuring the area of lesions. The preventive value was calculated from the ratio to the untreated group according to the following formula (N):
as §7

sheath blight fungi = conditions: 500 ppm spray, rice plants at 5-leaf stage, 6 days in humid room
[7] = read-out: Insect Mortality Rate
[8] = read-out: Insect Mortality Rate (Corrected)

Structure (SMILES): Cc1cccc([C@H](C)c2cnc[nH]2)c1C [Chemical Agent, dexmedetomidine]
- Phytophthora Expansion Area [1]: 15%
- Phytophthora Preventive Value [1]: 84
- mortality at 100 ppm [2, 7]: 100%
- mortality at 500 ppm [2, 7]: 100%
- mortality at 100 ppm [2, 8]: 100%
- mortality at 500 ppm [2, 8]: 100%
- mortality at 100 ppm [3, 7]: 100%
- mortality at 500 ppm [3, 7]: 100%
- mortality at 100 ppm [3, 8]: 100%
- mortality at 500 ppm [3, 8]: 100%
- mortality at 100 ppm [4, 7]: 100%
- mortality at 500 ppm [4, 7]: 100%
- mortality at 100 ppm [4, 8]: 100%
- mortality at 500 ppm [4, 8]: 100%
- mortality at 100 ppm [5, 7]: 100%
- mortality at 500 ppm [5, 7]: 100%
- mortality at 100 ppm [5, 8]: 100%
- mortality at 500 ppm [5, 8]: 100%
- Brown Blotch Disease Expansion Area [6]: 2%
- Brown Blotch Disease Preventive Value [6]: 86
- Blast Disease Expansion Area Percentage (blast disease pathogens): 0%
- Blast Disease Preventive Value (blast disease pathogens): 100
- Sheath Blight Disease Lesion Elongation (sheath blight fungi): 3 mm
- Sheath Blight Disease Preventive Value (sheath blight fungi): 98
